Source: patent US20220304957A1, “ANTI-CANCER COMPOSITIONS AND METHODS OF USE” (Board of Supervisors of Louisiana State University and …, priority 2019, published 2022)

Columns and labels:
[1] = system: mitochondrial respiration and glycolysis in LN-229 human glioblastoma cells; assay: Metabolic parameters, Extracellular Flux Analyzer (OCR/ECAR); format: cell-based; settings: 25 μM, LN229
Method: Metabolic responses of LN-229 human glioblastoma cells were evaluated with Extracellular Flux Analyzer XF24 (Seahorse Biosciences, North Billerica, Mass.). Prior each assay the cells were plated at 4×10^4 cells/well in 24-well plates in growth supporting media. At the time of measurement, growth media were replaced with serum-free XF medium (Seahorse) in cartridges equipped with oxygen-sensitive and pH-sensitive fluorescent probes. The oxygen consumption rate (OCR; indicative of mitochondrial respiration) and acidification rate (ECAR; indicative of glycolysis) were evaluated after injecting the following metabolic toxins: oligomycin, FCCP; rotenone; and antimycin A. Immediate metabolic effects were determined by comparing OCR and ECAR values in cells pre-incubated with DMSO (vehicle), or with PP1 and FF, all used at 25 μM. A: Representative experiment in which real OCR (pmol/min) and ECAR (mpH/min) values are shown. Other relevant metabolic parameters calculated from this experiment include ATP production, Spare Respiratory Capacity, basal OCR levels and proton leak. B: Average OCR and ECAR data (% change over basal OCR and ECAR values) from three independent experiments repeated 5 times (n=15).
Evaluation of metabolic parameters—Metabolic responses of human glioblastoma cells were evaluated with Extracellular Flux Analyzer XFe24 (Agilent Technologies). […]

[2] = system: LN-229 human glioblastoma cells; settings: in vitro; cited from earlier work
[3] = system: GL-261-luc mouse glioblastoma cell line; assay: Cell death, trypan blue, GL-261; settings: 5-50 μM, 96 h
Method: The percentage of cell death was calculated at 96-hour time point for all experimental conditions.

[4] = system: intracranial GL-261 glioblastoma tumors; assay: Intracranial GL-261-luc glioblastoma model, pathological evaluation of tumors; format: in vivo, C57BL/6 mice; settings: 50 mg/kg/day oral, 14 days, large pre-existing tumors, n=3
Method: Panel A: PP1 accumulation in different tissues following oral administration of PP1 (25 mg/kg). C57BL/6 mice were treated daily for 14 days, and the levels of PP1 in the blood, liver, spleen, kidney, heart, brain and in brain tumors, were evaluated by HPLC, as previously described. Data represent average values with standard deviation (n=3). Panel B: Body weight of C57BL/6 mice treated with PP1. Mice were treated with the PP1 at doses ranging from 25 to 75 mg/kg/day administered by oral gavage. Following 7 and 14 days of daily drug administration both control (DMSO-treated) and experimental (PP1-treated) mice were weighted. Data represent average values with standard deviation (at least three mice per group were included). In Panels A and B, tumor free and tumor bearing mice were included for the body weight measurement. Panels C, D and E: Intracranial growth of GL-261-Luc cells. […] Tumor size is expressed as radiance (photons/s/cm2/sr) and was quantified with the Living Image 4.1 software according to the manufacturer's recommendations (Xenogen). […]
Animal studies—All described procedures involving experimental animals were performed in accordance to the IACUC protocol #3444 at LSUHSC, New Orleans. […] The resulting images were evaluated and luminescence measurements from equivalent regions of interest encompassing the entire skull were collected using Living Image 4.1 software (Xenogen). […]

SMILES: CN(CCO)C(=O)C(C)(C)Oc1ccc(C(=O)c2ccc(Cl)cc2)cc1 [PP1, 2-[4-(4-chlorobenzoyl)phenoxy]-N-(2-hydroxyethyl)-N,2-dimethylpropanamide]
- extracellular acidification rate (ECAR) [1]: corresponding increases in ECAR
- oxygen consumption rate (OCR) [1]: dramatic decrease of OCR values
- concentration at which highly effective tumor cell death occurs [2]: 10 µM
- in vitro cytotoxicity [3]: high in vitro cytotoxicity
- necrosis within the tumor mass [4]: multiple large areas of necrotic tissue within the tumor mass
